Measured values published in patent US20100298141A1, “SUBSTITUTED PYRIDINE N-OXIDE HERBICIDES” (E. I. DU PONT DE NEMOURS AND COMPANY, priority 2007, published 2010).

What was measured:
corn (ZEAMD) = assay: Test H preemergence mixtures of compound 2 with crop safeners; type: in vivo, Zea mays cv. ‘Pioneer 33G26’; design: key to ZEAMD Obsd. (observed effect): observed % effect, visually evaluated vs controls; conditions: Test H, alone
Description: (§1) Seeds of test plants consisting of winter wheat (TRZAW, Triticum aestivum), corn (ZEAMD, Zea mays cv. ‘Pioneer 33G26’), giant foxtail (SETFA, Setaria faberi), and Italian ryegrass (LOLMU, Lolium multiflorum) were planted into a blend of loam soil and sand and treated preemergence with a directed soil spray using test chemicals formulated in a non-phytotoxic solvent mixture that included a surfactant. Seeds of small-seeded species were planted about 1 cm deep; larger seeds were planted about 2.5 cm deep. […] Balanced fertilizer was applied through the watering system. Treatments consisted of Compound 2 and the above mentioned safeners alone and in combination using a spray volume of 457 L/ha. Each treatment was replicated four times. Treated plants and controls were maintained in a greenhouse for 14 to 21 days, after which time all species were compared to controls and visually evaluated. […] A dash (-) response means no test result. Colby's Equation was used to determine the herbicidal effects expected from the mixtures. Colby's Equation (Colby, S. […] wherein • Pa+b is the percentage effect of the mixture expected from additive contribution of the individual components, • Pa is the observed percentage effect of the first active ingredient at the same use rate as in the mixture, and • Pb is the observed percentage effect of the second active ingredient at the same use rate as in the mixture.

giant foxtail (SETFA) = assay: as above; type: in vivo, Setaria faberi; design: key to SETFA Obsd. (observed effect): observed % effect, visually evaluated vs controls; conditions: Test H, alone
Description: as §1

winter wheat (TRZAW) = assay: as above; type: in vivo, Triticum aestivum; design: key to TRZAW Obsd. (observed effect): observed % effect, visually evaluated vs controls; conditions: Test H, alone
Description: as §1

Italian ryegrass (LOLMU) = assay: as above; type: in vivo, Lolium multiflorum; design: key to LOLMU Obsd. (observed effect): observed % effect, visually evaluated vs controls; conditions: Test H, alone
Description: as §1

duck salad = assay: Test C flooded paddy test; type: in vivo, Heteranthera limosa; conditions: Flood
Summary of the method: (§2)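 Flooded 3 cm over soil; compound into paddy water; depth kept constant. Greenhouse 13–15 d.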

umbrella sedge = assay: Test C flooded paddy test; type: in vivo, Cyperus difformis; conditions: Flood
Summary of the method: as §2

wheat = assay: Test A pre-/postemergence greenhouse test; type: in vivo, Triticum aestivum; conditions: for Wheat plant response rating: 0 to 100 scale
Summary of the method: (§3)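 Visual injury ratings, made relative to untreated controls roughly ten days after treatment, cover both preemergence and postemergence application. Compounds in a surfactant-containing non-phytotoxic solvent were sprayed onto the soil surface after sowing and, simultaneously, onto young plants at the one- to two-leaf stage.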

barnyardgrass [1] = assay: Test A pre-/postemergence greenhouse test; type: in vivo, Echinochloa crus-galli; conditions: for Barnyardgrass plant response rating: 0 to 100 scale
Summary of the method: as §3

barnyardgrass [2] = assay: Test C flooded paddy test; type: in vivo, Echinochloa crus-galli; conditions: Flood
Summary of the method: as §2

crabgrass = assay: Test A pre-/postemergence greenhouse test; type: in vivo, Digitaria sanguinalis; conditions: for Crabgrass, Large plant response rating: 0 to 100 scale
Summary of the method: as §3

velvetleaf = assay: Test A pre-/postemergence greenhouse test; type: in vivo, Abutilon theophrasti; conditions: for Velvetleaf plant response rating: 0 to 100 scale
Summary of the method: as §3

rice = assay: Test C flooded paddy test; type: in vivo, Oryza sativa; conditions: Flood
Summary of the method: as §2

corn = assay: Test A pre-/postemergence greenhouse test; type: in vivo, Zea mays; conditions: for Corn plant response rating: 0 to 100 scale
Summary of the method: as §3

morningglory = assay: Test A pre-/postemergence greenhouse test; type: in vivo, Ipomoea spp.; conditions: for Morningglory plant response rating: 0 to 100 scale
Summary of the method: as §3

redroot pigweed = assay: Test A pre-/postemergence greenhouse test; type: in vivo, Amaranthus retroflexus; conditions: for Pigweed plant response rating: 0 to 100 scale
Summary of the method: as §3

giant foxtail = assay: Test A pre-/postemergence greenhouse test; type: in vivo, Setaria faberi; conditions: for Foxtail, Giant plant response rating: 0 to 100 scale
Summary of the method: as §3

[3] = 31 g ai/ha, scale 0 to 100 (0 no effect, 100 complete control)
[4] = 62 g ai/ha, scale 0 to 100 (0 no effect, 100 complete control)
[5] = 125 g ai/ha, scale 0 to 100, 0 no effect, 100 complete control, 13 to 15 days
[6] = 250 g ai/ha, scale 0 to 100, 0 no effect, 100 complete control, 13 to 15 days
[7] = Postemergence, 125 g ai/ha, 0 to 100 scale where 0 is no effect and 100 is complete control
[8] = Postemergence, 500 g ai/ha, 0 is no effect, 100 is complete control
[9] = Preemergence, 125 g ai/ha, 0 no effect, 100 complete control
[10] = Preemergence, 500 g ai/ha, 0 no effect, 100 complete control

**Q.** With `CCOC(=O)C1=NN(c2ccc(Cl)cc2Cl)C(C)(C(=O)OCC)C1` (stereo not drawn) [mefenpyr-diethyl] as the compound, how does the “ZEAMD Obsd. (observed effect)” value (corn (ZEAMD); 8 g a.i./ha) read?
**A.** The value was 0.

**Q.** And the “ZEAMD Obsd. (observed effect)” value (corn (ZEAMD); 16 g a.i./ha)?
**A.** The value was 0.

**Q.** What about the “ZEAMD Obsd. (observed effect)” value (corn (ZEAMD); 31 g a.i./ha) of the same compound?
**A.** The value was 0.

**Q.** And the “SETFA Obsd. (observed effect)” value (giant foxtail (SETFA); 8 g a.i./ha)?
**A.** Its value is 0.

**Q.** And the “SETFA Obsd. (observed effect)” value (giant foxtail (SETFA); 16 g a.i./ha)?
**A.** Its value is 0.

**Q.** What about the “SETFA Obsd. (observed effect)” value (giant foxtail (SETFA); 31 g a.i./ha) of the same compound?
**A.** The value was 1.

**Q.** And the “TRZAW Obsd. (observed effect)” value (winter wheat (TRZAW); 8 g a.i./ha)?
**A.** Its value is 0.

**Q.** And the “TRZAW Obsd. (observed effect)” value (winter wheat (TRZAW); 16 g a.i./ha)?
**A.** The value was 0.

**Q.** What about the “TRZAW Obsd. (observed effect)” value (winter wheat (TRZAW); 31 g a.i./ha) of the same compound?
**A.** Its value is 0.

**Q.** What about the “LOLMU Obsd. (observed effect)” value (Italian ryegrass (LOLMU); 8 g a.i./ha) of the same compound?
**A.** Its value is 3.

**Q.** And the “LOLMU Obsd. (observed effect)” value (Italian ryegrass (LOLMU); 16 g a.i./ha)?
**A.** The value was 0.

**Q.** And the “LOLMU Obsd. (observed effect)” value (Italian ryegrass (LOLMU); 31 g a.i./ha)?
**A.** Its value is 0.

**Q.** Which results are given for `O=C1OC(=O)c2cccc3cccc1c23` [naphthalic anhydride, 1,8-naphthalic anhydride]?
**A.** ZEAMD Obsd. (observed effect) (corn (ZEAMD); 8 g a.i./ha): 0; ZEAMD Obsd. (observed effect) (corn (ZEAMD); 16 g a.i./ha): 0; ZEAMD Obsd. (observed effect) (corn (ZEAMD); 31 g a.i./ha): 0; SETFA Obsd. (observed effect) (giant foxtail (SETFA); 8 g a.i./ha): 0; SETFA Obsd. (observed effect) (giant foxtail (SETFA); 16 g a.i./ha): 0; SETFA Obsd. (observed effect) (giant foxtail (SETFA); 31 g a.i./ha): 0; TRZAW Obsd. (observed effect) (winter wheat (TRZAW); 8 g a.i./ha): 3; TRZAW Obsd. (observed effect) (winter wheat (TRZAW); 16 g a.i./ha): 0; TRZAW Obsd. (observed effect) (winter wheat (TRZAW); 31 g a.i./ha): 0; LOLMU Obsd. (observed effect) (Italian ryegrass (LOLMU); 8 g a.i./ha): 13; LOLMU Obsd. (observed effect) (Italian ryegrass (LOLMU); 16 g a.i./ha): 0; LOLMU Obsd. (observed effect) (Italian ryegrass (LOLMU); 31 g a.i./ha): 0

**Q.** What does the source list for `Cn1nc(C(F)(F)F)c(CS(=O)(=O)c2ccc(F)c[n+]2[O-])c1OC(F)F` [Compound 107]?
**A.** Plant response rating, Ducksalad (duck salad; [3]): 0; Plant response rating, Ducksalad (duck salad; [4]): 0; Plant response rating, Ducksalad (duck salad; [5]): 0; Plant response rating, Ducksalad (duck salad; [6]): 65; Plant response rating, Sedge, Umbrella (umbrella sedge; [3]): 0; Plant response rating, Sedge, Umbrella (umbrella sedge; [4]): 0; Plant response rating, Sedge, Umbrella (umbrella sedge; [5]): 0; Plant response rating, Sedge, Umbrella (umbrella sedge; [6]): 20; Plant response rating, Wheat (wheat; [7]): 0; Wheat plant response rating (wheat; [8]): 0; Wheat plant response rating (wheat; [9]): 0; Wheat plant response rating (wheat; [10]): 0; Plant response rating, Barnyardgrass (barnyardgrass [1]; [7]): 40; Barnyardgrass plant response rating (barnyardgrass [1]; [8]): 60; Barnyardgrass plant response rating (barnyardgrass [1]; [9]): 70; Barnyardgrass plant response rating (barnyardgrass [1]; [10]): 90; Plant response rating, Barnyardgrass (barnyardgrass [2]; [3]): 0; Plant response rating, Barnyardgrass (barnyardgrass [2]; [4]): 0; Plant response rating, Barnyardgrass (barnyardgrass [2]; [5]): 20; Plant response rating, Barnyardgrass (barnyardgrass [2]; [6]): 40; Plant response rating, Crabgrass, Large (crabgrass; [7]): 70; Crabgrass, Large plant response rating (crabgrass; [8]): 80; Crabgrass, Large plant response rating (crabgrass; [9]): 60; Crabgrass, Large plant response rating (crabgrass; [10]): 80; Plant response rating, Velvetleaf (velvetleaf; [7]): 0; Velvetleaf plant response rating (velvetleaf; [8]): 0; Velvetleaf plant response rating (velvetleaf; [9]): 0; Velvetleaf plant response rating (velvetleaf; [10]): 10; Plant response rating, Rice (rice; [3]): 0; Plant response rating, Rice (rice; [4]): 0; Plant response rating, Rice (rice; [5]): 0; Plant response rating, Rice (rice; [6]): 0; Plant response rating, Corn (corn; [7]): 0; Corn plant response rating (corn; [8]): 0; Corn plant response rating (corn; [9]): 0; Corn plant response rating (corn; [10]): 0; Plant response rating, Morningglory (morningglory; [7]): 0; Morningglory plant response rating (morningglory; [8]): 50; Morningglory plant response rating (morningglory; [9]): 0; Morningglory plant response rating (morningglory; [10]): 60; Plant response rating, Pigweed (redroot pigweed; [7]): 40; Pigweed plant response rating (redroot pigweed; [8]): 50; Pigweed plant response rating (redroot pigweed; [9]): 40; Pigweed plant response rating (redroot pigweed; [10]): 60; Plant response rating, Foxtail, Giant (giant foxtail; [7]): 70; Foxtail, Giant plant response rating (giant foxtail; [8]): 80; Foxtail, Giant plant response rating (giant foxtail; [9]): 60; Foxtail, Giant plant response rating (giant foxtail; [10]): 90
